According to ChEMBL document CHEMBL1201862, “PubChem BioAssay data set” (2004):
Calls of active or inactive are those of the source.

What was measured:
Cytochrome P450 2D6 [1] = target: T1, Cytochrome P450 2D6 (Homo sapiens, UniProt P10635);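 also: CYP2D6 member of a cytochrome P450 panel assay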
[2] = target: T2, Tyrosine-protein phosphatase non-receptor type 7 (Homo sapiens, UniProt P35236); assay type: functional
T2 sequence (P35236 whole entry): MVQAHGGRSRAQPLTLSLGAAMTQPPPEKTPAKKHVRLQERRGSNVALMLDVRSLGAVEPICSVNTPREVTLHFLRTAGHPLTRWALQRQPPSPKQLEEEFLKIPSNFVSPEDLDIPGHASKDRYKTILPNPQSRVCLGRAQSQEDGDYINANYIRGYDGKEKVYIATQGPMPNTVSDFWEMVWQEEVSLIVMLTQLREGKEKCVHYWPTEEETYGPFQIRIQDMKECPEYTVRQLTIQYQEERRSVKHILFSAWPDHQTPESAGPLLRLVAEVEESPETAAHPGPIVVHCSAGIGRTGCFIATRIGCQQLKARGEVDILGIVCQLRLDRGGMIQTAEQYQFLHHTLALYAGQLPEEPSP

[3] = target: Glyceraldehyde-3-phosphate dehydrogenase (Homo sapiens, UniProt P04406)
[4] = target: T3, Dual specificity protein phosphatase 6 (Rattus norvegicus, UniProt Q64346)
T3 sequence (Q64346 whole entry): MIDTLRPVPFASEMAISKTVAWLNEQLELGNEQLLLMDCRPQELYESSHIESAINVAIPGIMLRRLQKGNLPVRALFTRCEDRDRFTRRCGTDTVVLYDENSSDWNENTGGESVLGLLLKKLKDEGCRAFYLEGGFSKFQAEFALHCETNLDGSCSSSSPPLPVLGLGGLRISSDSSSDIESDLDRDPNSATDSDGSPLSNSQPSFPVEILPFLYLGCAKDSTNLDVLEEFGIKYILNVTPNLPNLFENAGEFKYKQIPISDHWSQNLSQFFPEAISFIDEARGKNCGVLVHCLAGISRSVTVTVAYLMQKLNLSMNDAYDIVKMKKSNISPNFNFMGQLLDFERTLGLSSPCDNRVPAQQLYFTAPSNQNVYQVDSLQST

[5] = target: T3, Dual specificity protein phosphatase 6; assay type: functional
[6] = target: Voltage-gated inwardly rectifying potassium channel KCNH2 (Homo sapiens, UniProt Q12809); settings: Potency;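 also: confirmatory quantitative high-throughput screen measuring inhibition of hERG channel activity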
Beta-galactosidase = Beta-galactosidase (Escherichia coli, UniProt Q8VNN2); assay: PubChem AID 485352; assay type: functional
[7] = target: T4, Type-1 angiotensin II receptor (Homo sapiens, UniProt P30556); assay: AT1 receptor antagonists, dose response, selectivity assay for APJ receptor antagonist project, cell-based, uHTS hits (AID 463214); assay type: functional;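 also: antagonist potency against angiotensin II stimulated AT1 response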
T4 sequence (P30556 whole entry): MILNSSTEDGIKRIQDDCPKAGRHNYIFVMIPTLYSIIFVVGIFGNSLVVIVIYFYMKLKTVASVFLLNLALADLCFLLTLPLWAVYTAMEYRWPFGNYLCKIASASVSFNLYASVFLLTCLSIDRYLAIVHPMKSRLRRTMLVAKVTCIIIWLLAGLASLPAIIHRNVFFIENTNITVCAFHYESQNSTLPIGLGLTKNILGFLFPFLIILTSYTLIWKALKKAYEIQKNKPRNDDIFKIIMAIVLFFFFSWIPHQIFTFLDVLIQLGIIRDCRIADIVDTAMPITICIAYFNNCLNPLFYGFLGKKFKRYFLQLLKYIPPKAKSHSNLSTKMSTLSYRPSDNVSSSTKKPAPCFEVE

[8] = target: Intestinal-type alkaline phosphatase (Mus musculus, UniProt P24822); assay: PubChem AID 488874; assay type: functional
[9] = target: T5, Intestinal-type alkaline phosphatase (Homo sapiens, UniProt P09923); assay: human IAP inhibitors, dose response, biochemical, luminescent, uHTS hits, set 2 (AID 488793); assay type: functional
[10] = target: T5, Intestinal-type alkaline phosphatase; assay: Dose Response confirmation of uHTS hits from a small molecule inhibitors of human intestinal alkaline phosphatase via a luminescent assay. [Related pubchem assays (depositor defined):AID2544, AID2574]; assay type: functional
[11] = target: Alkaline phosphatase, tissue-nonspecific isozyme (Homo sapiens, UniProt P05186); assay: inhibition of tissue-nonspecific alkaline phosphatase – biochemical, dose response (AID 488882); assay type: functional
[12] = target: UDP-galactopyranose mutase (Mycobacterium tuberculosis, UniProt P9WIQ1); assay: Inhibitors of Mycobacterium tuberculosis UDP-galactopyranose mutase (UGM) enzyme Measured in Biochemical System Using Plate Reader - 2105-02_Inhibitor_Dose_CherryPick_Activity. [Related pubchem assays (depositor defined):AID504439]
[13] = target: Lysine-specific demethylase 4C (Homo sapiens, UniProt Q9H3R0); assay: GASC-1 (JMJD2C) histone demethylase inhibitors, dose response, biochemical, DELFIA europium, cherry-picked samples (AID 488835); assay type: functional
[14] = Luminescent dose response cell-based high throughput screening assay for inhibitors of the Janus kinase 2 mutant JAK2V617F. [Related pubchem assays: 1446 (Primary screen.), 1521 (Confirmation assay.), 1486 (Counter screen.)]; assay type: functional
[15] = target: T6, High affinity choline transporter 1 (Homo sapiens, UniProt Q9GZV3); assay: CHT inhibitors, dose response, cell-based, 5-point CRC, membrane potential dye (AID 504840); assay type: functional
T6 sequence (Q9GZV3 whole entry): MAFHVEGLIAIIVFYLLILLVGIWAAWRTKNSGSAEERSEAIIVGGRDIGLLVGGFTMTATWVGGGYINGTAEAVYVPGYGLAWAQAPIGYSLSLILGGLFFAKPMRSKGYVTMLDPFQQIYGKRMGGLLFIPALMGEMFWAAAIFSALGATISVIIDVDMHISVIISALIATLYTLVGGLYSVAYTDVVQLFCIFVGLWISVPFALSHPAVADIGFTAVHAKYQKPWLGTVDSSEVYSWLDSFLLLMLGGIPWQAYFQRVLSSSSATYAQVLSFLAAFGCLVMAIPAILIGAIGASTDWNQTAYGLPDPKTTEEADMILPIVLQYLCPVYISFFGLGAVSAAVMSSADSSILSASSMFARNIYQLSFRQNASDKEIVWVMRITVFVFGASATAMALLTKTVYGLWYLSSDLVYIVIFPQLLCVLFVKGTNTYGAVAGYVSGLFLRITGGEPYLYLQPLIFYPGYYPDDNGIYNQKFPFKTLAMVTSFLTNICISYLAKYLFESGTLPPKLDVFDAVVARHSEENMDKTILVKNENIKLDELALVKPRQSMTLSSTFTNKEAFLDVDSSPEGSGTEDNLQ

HEK293 [16] = assay: cells; settings: Homo sapiens
HEK293 [17] = assay: cells; settings: Homo sapiens; remark: listed apart in the source
Mu-type opioid receptor [18] = target: T7, Mu-type opioid receptor (Homo sapiens, UniProt P35372); assay: SAR Analysis of Antagonists of the MOR Receptor using an Image-Based Assay - Set 2. [Related pubchem assays (depositor defined):AID1777, AID1785, AID1786, AID1966, AID2133, AID2136, AID2284, AID2285, AID2420]; assay type: functional
[19] = target: T8, Kappa-type opioid receptor (Homo sapiens, UniProt P41145); assay: SAR analysis of Antagonists of the Kappa Opioid Receptor (KOR) using an Image-Based Assay - Set 2. [Related pubchem assays (depositor defined):AID1777, AID1785, AID1786, AID1966, AID2133, AID2136, AID2284, AID2285, AID2348]; assay type: functional
Mu-type opioid receptor [20] = target: T7, Mu-type opioid receptor; assay: SAR Analysis of Agonists of the MOR Receptor using an Image-Based Assay - Set 2. [Related pubchem assays (depositor defined):AID1777, AID1785, AID1786, AID1966, AID2133, AID2136, AID2284, AID2285, AID2352]; assay type: functional
[21] = target: T8, Kappa-type opioid receptor; assay: SAR analysis of small molecule agonists of the kappa opioid receptor via a luminescent beta-arrestin assay - Set 2. [Related pubchem assays (depositor defined):AID1777, AID1785, AID1786, AID1966, AID2133, AID2136, AID2284, AID449737]; assay type: functional
[22] = target: T9, Delta-type opioid receptor (Homo sapiens, UniProt P41143); assay: SAR Analysis of Agonists of the DOR Receptor using an Image-Based Assay - Set 2. [Related pubchem assays (depositor defined):AID1777, AID1785, AID1786, AID1966, AID2133, AID2136, AID2284, AID2285, AID2370]; assay type: functional
[23] = target: T9, Delta-type opioid receptor; assay: SAR Analysis of Antagonists of the DOR Receptor using an Image-Based Assay - Set 2. [Related pubchem assays (depositor defined):AID1777, AID1785, AID1786, AID1966, AID2133, AID2136, AID2284, AID2285, AID2357]; assay type: functional
[24] = target: T8, Kappa-type opioid receptor; assay: KOR antagonist analogs, beta-arrestin recruitment, SAR follow-up, cell-based, luminescence, set 2 (AID 2495); assay type: functional
[25] = target: T8, Kappa-type opioid receptor; assay: SAR analysis of Agonists of the Kappa Opioid Receptor (KOR) using an Image-Based Assay - Set 2. [Related pubchem assays (depositor defined):AID1777, AID1786, AID1966, AID2133, AID2136, AID2284, AID2285, AID2359]; assay type: functional
[26] = target: T9, Delta-type opioid receptor; assay: Counterscreen for agonists of heterodimerization of the mu 1 (OPRM1) and delta 1 (OPRD1) opioid receptors: Luminescence-based cell-based high throughput dose response assay to identify agonists of OPRD1 homodimerization. [Related pubchem assays (depositor defined):AID504326, AID504355, AID504692, AID504904, AID504905]; assay type: functional
Mu-type opioid receptor [27] = target: T7, Mu-type opioid receptor; assay: Counterscreen for agonists of heterodimerization of the mu 1 (OPRM1) and delta 1 (OPRD1) opioid receptors: Luminescence-based cell-based high throughput dose response assay to identify agonists of OPRM1 homodimerization.; assay type: functional
[28] = target: 5-hydroxytryptamine receptor 5A (Homo sapiens, UniProt P47898); assay: Counterscreen for agonists of OPRM1-OPRD1 heterodimerization: luminescence-based cell-based high throughput dose response assay to identify agonists of 5-hydroxytryptamine (serotonin) 5A receptor (HTR5A). [Related pubchem assays (depositor defined):AID504326, AID504355, AID504692, AID504904, AID504905]; assay type: functional
NIH3T3 = assay: cytotoxicity in NIH-3T3 fibroblasts, dose response, cytotoxicity control for antifungal drug resistance project, cell-based, Alamar Blue, fluconazole, dry powder (AID 488809); assay type: functional; settings: Mus musculus
Cytochrome P450 2D6 [29] = target: T1, Cytochrome P450 2D6; remark: listed apart in the source
Cytochrome P450 1A2 = target: T10, Cytochrome P450 1A2 (Homo sapiens, UniProt P05177);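 also: PubChem cytochrome P450 panel assay, CYP1A2 panel member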
T10 sequence (P05177 whole entry): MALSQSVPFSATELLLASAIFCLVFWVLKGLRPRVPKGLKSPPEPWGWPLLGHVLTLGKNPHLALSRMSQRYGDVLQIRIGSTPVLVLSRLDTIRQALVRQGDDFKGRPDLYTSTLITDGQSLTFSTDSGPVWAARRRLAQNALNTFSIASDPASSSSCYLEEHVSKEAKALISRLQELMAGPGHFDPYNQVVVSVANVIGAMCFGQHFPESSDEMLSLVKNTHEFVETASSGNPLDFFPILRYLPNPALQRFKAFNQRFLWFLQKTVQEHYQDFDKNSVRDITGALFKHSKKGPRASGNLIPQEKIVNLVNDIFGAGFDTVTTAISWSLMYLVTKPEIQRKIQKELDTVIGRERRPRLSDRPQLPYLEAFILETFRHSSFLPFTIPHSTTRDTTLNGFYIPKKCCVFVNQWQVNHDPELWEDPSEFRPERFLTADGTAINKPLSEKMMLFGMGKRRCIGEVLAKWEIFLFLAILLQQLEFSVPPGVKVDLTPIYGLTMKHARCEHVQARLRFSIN

T8 sequence (P41145 whole entry): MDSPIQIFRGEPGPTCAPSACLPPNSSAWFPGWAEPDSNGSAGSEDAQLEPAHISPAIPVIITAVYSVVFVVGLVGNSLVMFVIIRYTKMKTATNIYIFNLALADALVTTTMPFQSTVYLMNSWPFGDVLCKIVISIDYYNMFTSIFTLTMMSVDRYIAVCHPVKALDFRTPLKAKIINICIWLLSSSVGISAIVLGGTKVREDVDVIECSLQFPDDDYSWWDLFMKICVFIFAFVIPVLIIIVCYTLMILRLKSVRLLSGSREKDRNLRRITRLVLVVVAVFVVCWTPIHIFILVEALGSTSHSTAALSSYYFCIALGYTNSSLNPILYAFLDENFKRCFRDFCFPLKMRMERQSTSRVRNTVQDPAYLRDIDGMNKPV
T7 sequence (P35372 whole entry): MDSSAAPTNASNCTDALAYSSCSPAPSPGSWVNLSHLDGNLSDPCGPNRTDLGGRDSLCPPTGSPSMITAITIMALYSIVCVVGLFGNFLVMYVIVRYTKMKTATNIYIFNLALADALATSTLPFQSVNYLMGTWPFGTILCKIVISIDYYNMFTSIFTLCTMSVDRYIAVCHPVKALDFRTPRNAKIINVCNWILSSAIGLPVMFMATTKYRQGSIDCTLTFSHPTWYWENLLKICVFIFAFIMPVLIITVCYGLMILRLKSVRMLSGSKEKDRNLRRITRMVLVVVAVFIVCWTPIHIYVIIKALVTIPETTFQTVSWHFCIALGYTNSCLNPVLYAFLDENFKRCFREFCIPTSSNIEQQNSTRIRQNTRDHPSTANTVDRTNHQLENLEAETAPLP
T9 sequence (P41143 whole entry): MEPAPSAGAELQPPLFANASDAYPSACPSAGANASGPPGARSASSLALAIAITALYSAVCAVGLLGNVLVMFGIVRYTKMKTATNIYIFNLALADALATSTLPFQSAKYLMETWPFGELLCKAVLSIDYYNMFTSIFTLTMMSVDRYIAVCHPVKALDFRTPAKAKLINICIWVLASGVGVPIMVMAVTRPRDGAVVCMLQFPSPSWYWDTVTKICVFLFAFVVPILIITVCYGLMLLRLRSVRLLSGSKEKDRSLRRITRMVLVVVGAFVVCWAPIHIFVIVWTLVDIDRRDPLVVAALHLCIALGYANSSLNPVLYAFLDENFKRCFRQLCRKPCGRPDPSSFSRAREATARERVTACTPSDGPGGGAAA
T5 sequence (P09923 whole entry): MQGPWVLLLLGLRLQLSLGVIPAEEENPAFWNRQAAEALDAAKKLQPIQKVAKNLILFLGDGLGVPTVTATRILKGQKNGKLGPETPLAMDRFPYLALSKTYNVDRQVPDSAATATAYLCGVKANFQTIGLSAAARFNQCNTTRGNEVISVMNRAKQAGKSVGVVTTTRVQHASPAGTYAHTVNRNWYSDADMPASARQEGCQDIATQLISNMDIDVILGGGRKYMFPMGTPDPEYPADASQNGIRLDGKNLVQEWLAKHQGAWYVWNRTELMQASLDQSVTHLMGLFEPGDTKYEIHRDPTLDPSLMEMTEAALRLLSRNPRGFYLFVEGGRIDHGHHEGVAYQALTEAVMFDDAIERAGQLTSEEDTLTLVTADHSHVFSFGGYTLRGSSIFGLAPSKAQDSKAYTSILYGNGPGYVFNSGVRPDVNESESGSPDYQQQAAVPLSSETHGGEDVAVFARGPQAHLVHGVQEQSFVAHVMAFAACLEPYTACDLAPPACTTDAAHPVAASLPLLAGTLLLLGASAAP
T1 sequence (P10635 whole entry): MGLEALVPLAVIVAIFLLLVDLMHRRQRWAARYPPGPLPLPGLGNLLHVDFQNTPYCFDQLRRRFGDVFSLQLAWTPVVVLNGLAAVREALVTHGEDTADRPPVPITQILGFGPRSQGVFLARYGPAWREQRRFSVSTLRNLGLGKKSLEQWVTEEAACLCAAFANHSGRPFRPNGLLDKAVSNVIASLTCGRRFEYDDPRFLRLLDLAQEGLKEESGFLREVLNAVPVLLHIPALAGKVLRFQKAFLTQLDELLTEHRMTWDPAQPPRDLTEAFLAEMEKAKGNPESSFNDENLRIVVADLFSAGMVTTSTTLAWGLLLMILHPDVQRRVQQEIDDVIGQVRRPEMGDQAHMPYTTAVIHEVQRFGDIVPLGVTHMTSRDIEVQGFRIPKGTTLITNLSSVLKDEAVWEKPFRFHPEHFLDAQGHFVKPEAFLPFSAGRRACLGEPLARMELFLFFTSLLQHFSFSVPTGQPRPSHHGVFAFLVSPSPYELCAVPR
Sequence of Intestinal-type alkaline phosphatase (Mus musculus, UniProt P24822) (P24822 whole entry): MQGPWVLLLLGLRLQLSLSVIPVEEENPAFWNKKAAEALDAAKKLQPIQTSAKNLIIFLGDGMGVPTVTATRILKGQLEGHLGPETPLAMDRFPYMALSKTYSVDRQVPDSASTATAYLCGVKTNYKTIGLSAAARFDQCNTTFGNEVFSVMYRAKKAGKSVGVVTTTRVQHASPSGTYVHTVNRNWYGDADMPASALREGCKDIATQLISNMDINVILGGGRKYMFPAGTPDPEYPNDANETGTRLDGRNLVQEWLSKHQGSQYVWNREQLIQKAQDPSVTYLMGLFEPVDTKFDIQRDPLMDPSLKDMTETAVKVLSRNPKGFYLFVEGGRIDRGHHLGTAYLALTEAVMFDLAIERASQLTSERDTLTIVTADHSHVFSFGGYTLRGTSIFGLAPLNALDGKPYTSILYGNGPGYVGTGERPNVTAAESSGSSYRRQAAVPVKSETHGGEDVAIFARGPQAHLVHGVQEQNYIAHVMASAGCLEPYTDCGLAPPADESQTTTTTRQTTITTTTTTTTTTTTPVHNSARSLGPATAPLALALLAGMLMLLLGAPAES
Sequence of Glyceraldehyde-3-phosphate dehydrogenase (P04406 whole entry): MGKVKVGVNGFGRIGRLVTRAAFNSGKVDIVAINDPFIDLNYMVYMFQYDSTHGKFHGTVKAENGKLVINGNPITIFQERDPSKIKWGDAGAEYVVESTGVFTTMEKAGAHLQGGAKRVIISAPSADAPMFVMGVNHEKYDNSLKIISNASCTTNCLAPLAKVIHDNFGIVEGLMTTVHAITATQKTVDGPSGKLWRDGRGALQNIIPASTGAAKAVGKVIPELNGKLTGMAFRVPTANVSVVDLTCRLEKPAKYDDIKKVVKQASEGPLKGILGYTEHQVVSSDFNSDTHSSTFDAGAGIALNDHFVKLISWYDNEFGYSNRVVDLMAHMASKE
Sequence of Alkaline phosphatase, tissue-nonspecific isozyme (P05186 whole entry): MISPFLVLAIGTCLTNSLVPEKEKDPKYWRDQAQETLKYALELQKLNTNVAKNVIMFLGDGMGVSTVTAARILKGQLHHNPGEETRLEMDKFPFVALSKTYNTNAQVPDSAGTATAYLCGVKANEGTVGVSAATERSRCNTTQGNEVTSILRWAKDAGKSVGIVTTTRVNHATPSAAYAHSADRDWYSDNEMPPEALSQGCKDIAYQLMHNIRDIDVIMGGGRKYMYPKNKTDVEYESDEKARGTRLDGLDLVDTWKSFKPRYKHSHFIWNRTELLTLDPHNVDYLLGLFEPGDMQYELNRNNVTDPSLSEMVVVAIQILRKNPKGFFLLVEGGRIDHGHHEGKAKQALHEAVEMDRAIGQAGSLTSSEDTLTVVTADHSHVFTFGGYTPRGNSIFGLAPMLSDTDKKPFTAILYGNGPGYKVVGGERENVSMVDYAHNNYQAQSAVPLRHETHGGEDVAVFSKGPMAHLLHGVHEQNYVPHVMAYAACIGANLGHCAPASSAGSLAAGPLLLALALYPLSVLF
Sequence of Voltage-gated inwardly rectifying potassium channel KCNH2 (Q12809 whole entry): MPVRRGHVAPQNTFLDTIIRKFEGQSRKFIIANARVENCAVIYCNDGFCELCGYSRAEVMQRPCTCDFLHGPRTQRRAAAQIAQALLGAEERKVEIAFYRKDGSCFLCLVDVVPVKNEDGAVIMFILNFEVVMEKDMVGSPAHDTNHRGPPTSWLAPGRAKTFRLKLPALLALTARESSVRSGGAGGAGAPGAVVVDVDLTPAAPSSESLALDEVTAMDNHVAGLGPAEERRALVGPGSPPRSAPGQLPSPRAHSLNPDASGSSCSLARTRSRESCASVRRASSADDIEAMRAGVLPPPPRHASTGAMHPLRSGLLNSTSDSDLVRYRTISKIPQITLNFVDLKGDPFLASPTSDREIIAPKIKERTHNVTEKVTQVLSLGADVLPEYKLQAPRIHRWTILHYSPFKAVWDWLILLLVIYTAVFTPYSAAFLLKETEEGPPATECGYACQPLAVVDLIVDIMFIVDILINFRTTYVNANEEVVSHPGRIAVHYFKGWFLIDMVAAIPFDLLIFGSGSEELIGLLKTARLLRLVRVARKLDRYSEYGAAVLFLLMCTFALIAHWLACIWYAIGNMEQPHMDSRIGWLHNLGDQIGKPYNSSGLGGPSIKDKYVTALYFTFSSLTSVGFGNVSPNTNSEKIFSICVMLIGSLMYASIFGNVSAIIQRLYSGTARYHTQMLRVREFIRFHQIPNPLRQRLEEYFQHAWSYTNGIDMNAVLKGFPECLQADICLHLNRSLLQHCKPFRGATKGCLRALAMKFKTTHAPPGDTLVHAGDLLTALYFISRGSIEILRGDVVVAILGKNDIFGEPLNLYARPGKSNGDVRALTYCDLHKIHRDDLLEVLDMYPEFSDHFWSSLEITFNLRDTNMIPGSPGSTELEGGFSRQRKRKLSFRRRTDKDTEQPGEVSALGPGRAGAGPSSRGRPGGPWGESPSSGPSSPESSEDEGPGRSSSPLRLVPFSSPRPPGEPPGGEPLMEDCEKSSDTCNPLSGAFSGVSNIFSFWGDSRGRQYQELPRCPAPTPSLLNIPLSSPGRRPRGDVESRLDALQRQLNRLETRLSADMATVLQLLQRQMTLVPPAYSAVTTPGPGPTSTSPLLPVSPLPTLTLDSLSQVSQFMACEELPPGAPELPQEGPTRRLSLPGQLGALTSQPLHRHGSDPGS

Compound: O=C(O)C1(C(=O)O)CCN(S(=O)(=O)c2ccccc2)CC1
- AC50 (Cytochrome P450 2D6 [1]): inconclusive

Compound: C#CCCCCCCCCCCCCCCCCCC
- IC50 [2]: > 100 µM (not active)
- IC50 [3]: > 100 µM (not active)
- IC50 [4]: > 100 µM (inactive)
- IC50 [5]: > 100 µM (inactive)

Compound: Brc1ccc(-c2ccccc2)cc1
- AC50 [6]: 39.8 µM (inconclusive)

Compound: CN(C)c1ccc2nc3c(=O)[nH]c(=O)nc-3n(CC(O)C(O)C(O)CO)c2c1 (configuration not stated)
- EC50 (Beta-galactosidase): > 40 µM (inactive)
- IC50 [7]: 29.1 µM (not active)
- IC50 [8]: 30.8 µM (active)
- IC50 [9]: 34 µM (active)
- IC50 [10]: 14.7 µM (inactive)
- IC50 [11]: 33 µM (active)
- AC50 [12]: > 500 µM (inactive)

Compound: CC(=O)Nc1ccc(CN2CCN(c3cccc(C(F)(F)F)c3)CC2)cc1
- AC50 [13]: 24.8 µM (active)

Compound: COc1ccc(C2=Nn3c(nnc3C3CCCCC3)SC2)cc1OC
- IC50 [14]: 3.41 µM (active)
- IC50 [15]: 1.74 µM (active)
- EC50 (HEK293 [16]): > 59.6 µM (inactive)
- EC50 (HEK293 [17]): > 59.6 µM (inactive)

Compound: Cc1ccc(S(=O)(=O)NCc2ccc(C(=O)NCCCN(Cc3ccccc3)C(C)C)cc2)cc1
- IC50 (Mu-type opioid receptor [18]): > 32 µM (inactive)
- IC50 [19]: > 32 µM (inactive)
- EC50 (Mu-type opioid receptor [20]): > 32 µM (inactive)
- EC50 [21]: > 20 µM (inactive)
- EC50 [22]: > 32 µM (inactive)
- IC50 [23]: > 32 µM (inactive)
- IC50 [24]: > 20 µM (inactive)
- EC50 [25]: > 32 µM (inactive)

Compound: Cc1ccc(C)c(-n2cc(CNC(C)Cn3cncn3)c(-c3ccccc3)n2)c1 (configuration not stated)
- EC50 [26]: > 92.5 µM (inactive)
- EC50 (Mu-type opioid receptor [27]): > 92.5 µM (inactive)
- EC50 [28]: > 92.5 µM (inactive)

Compound: CCOC(=O)c1nn(Cc2ccc(Cl)cc2)c2ccccc12
- AC50 (NIH3T3): 39 µM (active)

Compound: CS(=O)(=O)O.Cc1ccc(N(CC2=NCCN2)c2cccc(O)c2)cc1 [PHENTOLAMINE MESYLATE]
- AC50 (Cytochrome P450 2D6 [29]): 3.16 µM (active)
- AC50 (Cytochrome P450 1A2): inactive
